# Test system: Caco-2 cells
# Assay: Caco-2 permeability assay (pH 6.5/7.4 gradient, ± elacridar)
# Settings: Caco-2, 10 µM, apical pH 6.5 / basolateral pH 7.4, 120 min, without inhibitor
# Experimental: In vitro permeability studies were performed at Cyprotex Discovery Ltd. (Macclesfield, UK) using a high-throughput Caco-2 permeability assay. Permeability at 37 °C was assessed from the apical to basolateral side (A⟹B) and in opposite direction (B⟹A) applying a pH gradient with pH 6.5 in the apical and pH 7.4 in the basolateral compartment (Hanks Balanced Salt Solution, HBSS). After an incubation of 120 min, samples were diluted for analysis via liquid chromatography coupled with tandem mass spectrometry (LC-MS/MS). […] Experiments were performed in absence and presence of the P-glycoprotein (P-gp) inhibitor elacridar (10 µM) to study transporter-mediated efflux effects. The dosing solutions contained the API (10 µM) in HBSS, and DMSO in a concentration of ≤1% v/v. Lucifer yellow (100 µM) was included as fluorescent integrity marker. Further experimental details are provided in Supplementary Materials.
# The apparent permeability coefficients (Papp) were calculated according to Equation (27):(27) Papp=dQ/dt/C0·A where dQ/dt is the permeation rate of the API across the cell monolayer, C0 is the starting concentration of the API in the dosing solution and A is the surface area of the cell monolayer. The efflux ratios (ERs) were calculated from the B⟹A and A⟹B Papp values to estimate whether P-gp mediated efflux was involved in the transport of the APIs. The mass balance (% recovery) was calculated from the sum of the API recovered from the acceptor and donor compartments at the end of the experiment, divided by the initial donor amount.
# Table S6. Gradient of the UPLC method for analysis of lemborexant.
# Table S7. Gradient of the UPLC method for analysis of istradefylline.
# S.2.5. rDCS Standard Investigations: Caco‐2 permeability studies
# Caco‐2 cells were obtained from the American Type Culture Collection (ATCC, Manassas, VA, USA) and used between passage numbers 40 to 60. The cells were seeded onto Millipore Multiscreen Transwell plates at a density of 1 x 10^5 cells/cm2 and cultured in Dulbeccoʹs Modified Eagleʹs Medium (DMEM). The medium was changed every two or three days. Ce l l culture was carried out at 37 °C in an atmosphere of 5 % CO2 with a relative humidity of 95 %. The permeability assay was performed on day 20.
# In vitro permeability was assessed wit h a high‐throughput Caco‐2 permeability assay. The assay was prepared by rinsing apical and basolateral monolayer surfaces twice with Hanks Balanced Salt Solution (HBSS) at the desired pH and 37 °C. Subsequently, cells in the apical and basolateral compartments were incubated with HBSS at the desired pH for 40 min. A pH gradient with pH 6.5 in the apical compartment and pH 7.4 in the basolateral compartment was applied. Dosing solutions containing the API (10 μ M) were prepared by diluting a concentrated API solution in DMS O with HBSS. The final DMSO concentration was ≤ 1% v/v. Lucifer yellow (100 μM) was included in the dosing solution as fluorescent integrity marker. For the assessment of the permeability from the apical to basolateral side (A⟹B), HBSS in the apical compartment was replaced with the dosing solution. The apical inserts were placed into a companion plat e containing fresh buffer with 1% v/ v DMSO. For the assessment of the permeability from the basolateral to […]
# apical side (B⟹A), HBSS was removed from the companion plate and replaced with the solution of drug in HBSS. Fresh HBSS was added to the apical insert, which was then placed into the companion plate.
# Experiments were performed in absence and presence of the P‐glycoprotein (P‐gp) inhibitor elacridar (10 μM) to study transporter‐mediated efflux effects. In those experiments, elacridar was included in both compartments during the equilibration time and assay. The starting concentration (C0) was confirmed by sampling from the dosing solution immediately before dosing into the cell pl ates. After incubation of 120 minutes, the apical inserts and companion plates were separated for sampling from both compartments.
compound,measurement,value
CC(C)NCC(O)COc1cccc2ccccc12 (stereo not shown) [propranolol],Papp(A⟹B),13.0 ± 0.7 ×10^−6 cm/s
